This is an account of results in patent US20240043404A1 (AbbVie Inc., priority 2009, published 2024).

One assay concerns RS4;11 cells. The assay is described as follows: RS4;11 cell viability assay (CellTiter Glo).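 Also: acute lymphoblastic leukemia line RS4,11, EC50 derived from percentage of viable cells after treatment relative to untreated controls, cell killing taken as a measure of Bcl-2 inhibition.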 The class given is cell-based, human. The following applies: Homo sapiens, RS4-11, 48 h, 50,000 cells per well, 10% human serum, 48 hours; read-out: RS4; 11 EC50 Values. Background: Cellular ATP, detected with luciferase, serves as a proxy for viable cell number.
Description: The acute lymphoblastic leukemia (ALL) cell line RS4;11 was used as the primary human cell line to assess the cellular activity of Bcl-2 selective agents in vitro and their efficacy in vivo.
Cell cytotoxicity EC50 values were assessed using CellTiter Glo (Promega) according to the manufacturer's recommendations. The EC50 values were determined as a percentage of viable cells following treatment compared to the untreated control cells.
Consider `CC1(C)CCC(CN2CCN(c3ccc(C(=O)NS(=O)(=O)c4ccc(OCC5(F)CCNCC5)c([N+](=O)[O-])c4)c(Oc4cnc5[nH]ccc5c4)c3)CC2)=C(c2ccc(Cl)cc2)C1` [Example 127, 4-(4-{[2-(4-chlorophenyl)-4,4-dimethylcyclohex-1-en-1-yl]methyl}piperazin-1-yl)-N-({4-[(4-fluoropiperidin-4-yl)methoxy]-3-nitrophenyl}sulfonyl)-2-(1H-pyrrolo[2,3-b]pyridin-5-yloxy)benzamide], for which the EC50 was determined as 0.00975 µM.
As to `CC1(C)CCC(CN2CCN(c3ccc(C(=O)NS(=O)(=O)c4ccc(OCC5(F)CCN(C6COC6)CC5)c(Cl)c4)c(Oc4cnc5[nH]ccc5c4)c3)CC2)=C(c2ccc(Cl)cc2)C1` [Example 322, N-[(3-chloro-4-{[4-fluoro-1-(oxetan-3-yl)piperidin-4-yl]methoxy}phenyl)sulfonyl]-4-(4-{[2-(4-chlorophenyl)-4,4-dimethylcyclohex-1-en-1-yl]methyl}piperazin-1-yl)-2-(1H-pyrrolo[2,3-b]pyridin-5-yloxy)benzamide], the EC50 is 0.0124 µM.
Regarding `CC1(C)CCC(CN2CCN(c3ccc(C(=O)NS(=O)(=O)c4cnc(OC5CCN(C6CCOCC6)CC5)c(C#N)c4)c(Oc4cnc5[nH]ccc5c4)c3)CC2)=C(c2ccc(Cl)cc2)C1` [Example 84, 4-(4-{[2-(4-chlorophenyl)-4,4-dimethylcyclohex-1-en-1-yl]methyl}piperazin-1-yl)-N-({5-cyano-6-[(1-tetrahydro-2H-pyran-4-ylpiperidin-4-yl)oxy]pyridin-3-yl}sulfonyl)-2-(1H-pyrrolo[2,3-b]pyridin-5-yloxy)benzamide], the EC50 was 0.158 µM.
Same read-out and setting: in the case of `CC1(C)CCC(CN2CCN(c3ccc(C(=O)NS(=O)(=O)c4cnc(OCC5(F)CCN(C(CF)CF)CC5)c(C(F)(F)F)c4)c(Oc4cnc5[nH]ccc5c4)c3)CC2)=C(c2ccc(Cl)cc2)C1` [Example 288, 4-(4-{[2-(4-chlorophenyl)-4,4-dimethylcyclohex-1-en-1-yl]methyl}piperazin-1-yl)-N-{[6-{[1-(1,3-difluoropropan-2-yl)-4-fluoropiperidin-4-yl]methoxy}-5-(trifluoromethyl)pyridin-3-yl]sulfonyl}-2-(1H-pyrrolo[2,3-b]pyridin-5-yloxy)benzamide] it was 0.39 µM; in that of `CC1(C)CCC(CN2CCN(c3ccc(C(=O)NS(=O)(=O)c4ccc(N[C@H]5CC[C@H](NS(C)(=O)=O)CC5)c([N+](=O)[O-])c4)c(Oc4cnc5[nH]ccc5c4)c3)CC2)=C(c2ccc(Cl)cc2)C1` [Example 189, Trans-4-(4-{[2-(4-chlorophenyl)-4,4-dimethylcyclohex-1-en-1-yl]methyl}piperazin-1-yl)-N-{[4-({4-[(methylsulfonyl)amino]cyclohexyl}amino)-3-nitrophenyl]sulfonyl}-2-(1H-pyrrolo[2,3-b]pyridin-5-yloxy)benzamide], 0.144 µM.
The same measure, in the same setting: the same measure for `CC1(C)CCC(CN2CCN(c3ccc(C(=O)NS(=O)(=O)c4ccc(NC5CCN(C(CF)CF)CC5)c([N+](=O)[O-])c4)c(Oc4cnc5[nH]ccc5c4)c3)CC2)=C(c2ccc(Cl)cc2)C1` [Example 95, 4-(4-{[2-(4-chlorophenyl)-4,4-dimethylcyclohex-1-en-1-yl]methyl}piperazin-1-yl)-N-{[4-({1-[2-fluoro-1-(fluoromethyl)ethyl]piperidin-4-yl}amino)-3-nitrophenyl]sulfonyl}-2-(1H-pyrrolo[2,3-b]pyridin-5-yloxy)benzamide]: 0.0295 µM.
Same read-out and setting: the same measure for `COc1ccc(CNc2ccc(S(=O)(=O)NC(=O)c3ccc(N4CCN(CC5=C(c6ccc(Cl)cc6)CC(C)(C)CC5)CC4)cc3Oc3cnc4[nH]ccc4c3)cc2[N+](=O)[O-])cc1` [Example 174, 4-(4-{[2-(4-chlorophenyl)-4,4-dimethylcyclohex-1-en-1-yl]methyl}piperazin-1-yl)-N-({4-[(4-methoxybenzyl)amino]-3-nitrophenyl}sulfonyl)-2-(1H-pyrrolo[2,3-b]pyridin-5-yloxy)benzamide]: 0.126 µM; for `CC1(C)CCC(CN2CCN(c3ccc(C(=O)NS(=O)(=O)c4ccc(NCC5CN(CC#N)CCO5)c([N+](=O)[O-])c4)c(Oc4cnc5[nH]ccc5c4)c3)CC2)=C(c2ccc(Cl)cc2)C1` (stereo not shown) [Example 214, 4-(4-{[2-(4-chlorophenyl)-4,4-dimethylcyclohex-1-en-1-yl]methyl}piperazin-1-yl)-N-{[4-({[4-(cyanomethyl)morpholin-2-yl]methyl}amino)-3-nitrophenyl]sulfonyl}-2-(1H-pyrrolo[2,3-b]pyridin-5-yloxy)benzamide]: 0.00438 µM.
As to `CC1(C)CCC(CN2CCN(c3ccc(C(=O)NS(=O)(=O)c4ccc(NCC5CCOCC5)c([N+](=O)[O-])c4)c(Oc4cnc5[nH]ccc5c4)c3)CC2)=C(c2ccc(Cl)cc2)C1` [Example 5, 4-(4-{[2-(4-chlorophenyl)-4,4-dimethylcyclohex-1-en-1-yl]methyl}piperazin-1-yl)-N-({3-nitro-4-[(tetrahydro-2H-pyran-4-ylmethyl)amino]phenyl}sulfonyl)-2-(1H-pyrrolo[2,3-b]pyridin-5-yloxy)benzamide], the EC50 amounted to 0.0124 µM.
Still for that read-out and setting: in the case of `CC1(C)CCC(CN2CCN(c3ccc(C(=O)NS(=O)(=O)c4ccc(NC5CCN(CC(F)(F)F)CC5)c([N+](=O)[O-])c4)c(Oc4cnc5[nH]ccc5c4)c3)CC2)=C(c2ccc(Cl)cc2)C1` [Example 83, 4-(4-{[2-(4-chlorophenyl)-4,4-dimethylcyclohex-1-en-1-yl]methyl}piperazin-1-yl)-N-[(3-nitro-4-{[1-(2,2,2-trifluoroethyl)piperidin-4-yl]amino}phenyl)sulfonyl]-2-(1H-pyrrolo[2,3-b]pyridin-5-yloxy)benzamide] it was 0.197 µM; in that of `CC1(C)CCC(CN2CCN(c3ccc(C(=O)NS(=O)(=O)c4ccc(OCC#CCN5CCOCC5)c([N+](=O)[O-])c4)c(Oc4cnc5[nH]ccc5c4)c3)CC2)=C(c2ccc(Cl)cc2)C1` [Example 68, 4-(4-{[2-(4-chlorophenyl)-4,4-dimethylcyclohex-1-en-1-yl]methyl}piperazin-1-yl)-N-({4-[(4-morpholin-4-ylbut-2-ynyl)oxy]-3-nitrophenyl}sulfonyl)-2-(1H-pyrrolo[2,3-b]pyridin-5-yloxy)benzamide], 0.108 µM.
With `CC1(C)CCC(CN2CCN(c3ccc(C(=O)NS(=O)(=O)c4cnc(OCC5(F)CCN(C(CF)CF)CC5)c(Cl)c4)c(Oc4cnc5[nH]ccc5c4)c3)CC2)=C(c2ccc(Cl)cc2)C1` [Example 282, N-[(5-chloro-6-{[1-(1,3-difluoropropan-2-yl)-4-fluoropiperidin-4-yl]methoxy}pyridin-3-yl)sulfonyl]-4-(4-{[2-(4-chlorophenyl)-4,4-dimethylcyclohex-1-en-1-yl]methyl}piperazin-1-yl)-2-(1H-pyrrolo[2,3-b]pyridin-5-yloxy)benzamide], the EC50 is 0.0322 µM.
On the same count and under the same terms, in the case of `CC1(C)CCC(CN2CCN(c3ccc(C(=O)NS(=O)(=O)c4ccc(NCC5(N6CCOCC6)CCCCC5)c([N+](=O)[O-])c4)c(Oc4cnc5[nH]ccc5c4)c3)CC2)=C(c2ccc(Cl)cc2)C1` [Example 99, 4-(4-{[2-(4-chlorophenyl)-4,4-dimethylcyclohex-1-en-1-yl]methyl}piperazin-1-yl)-N-[(4-{[(1-morpholin-4-ylcyclohexyl)methyl]amino}-3-nitrophenyl)sulfonyl]-2-(1H-pyrrolo[2,3-b]pyridin-5-yloxy)benzamide] it was 1.39 µM; in that of `CC1(C)CCC(CN2CCN(c3ccc(C(=O)NS(=O)(=O)c4ccc(NN5CCN(C(=O)OC(C)(C)C)CC5)c([N+](=O)[O-])c4)c(Oc4cnc5[nH]ccc5c4)c3)CC2)=C(c2ccc(Cl)cc2)C1` [Example 232, tert-butyl 4-[(4-{[4-(4-{[2-(4-chlorophenyl)-4,4-dimethylcyclohex-1-en-1-yl]methyl}piperazin-1-yl)-2-(1H-pyrrolo[2,3-b]pyridin-5-yloxy)benzoyl]sulfamoyl}-2-nitrophenyl)amino]piperazine-1-carboxylate], more than 1 µM.
On the same count and under the same terms, in the case of `CC1(C)CCC(CN2CCN(c3ccc(C(=O)NS(=O)(=O)c4ccc(N[C@@H]5CCOC5)c([N+](=O)[O-])c4)c(Oc4cnc5[nH]ccc5c4)c3)CC2)=C(c2ccc(Cl)cc2)C1` [Example 238, 4-(4-{[2-(4-chlorophenyl)-4,4-dimethylcyclohex-1-en-1-yl]methyl}piperazin-1-yl)-N-({3-nitro-4-[(3R)-tetrahydrofuran-3-ylamino]phenyl}sulfonyl)-2-(1H-pyrrolo[2,3-b]pyridin-5-yloxy)benzamide] it was 0.103 µM; in that of `CC1(C)CCC(CN2CCN(c3ccc(C(=O)NS(=O)(=O)c4ccc(NCCCN(C5CC5)C5COC5)c([N+](=O)[O-])c4)c(Oc4cnc5[nH]ccc5c4)c3)CC2)=C(c2ccc(Cl)cc2)C1` [Example 311, 4-(4-{[2-(4-chlorophenyl)-4,4-dimethylcyclohex-1-en-1-yl]methyl}piperazin-1-yl)-N-{[4-({3-[cyclopropyl(oxetan-3-yl)amino]propyl}amino)-3-nitrophenyl]sulfonyl}-2-(1H-pyrrolo[2,3-b]pyridin-5-yloxy)benzamide], 0.0358 µM.
Same read-out and setting: the same measure for `COCC(C)(C)CNc1ccc(S(=O)(=O)NC(=O)c2ccc(N3CCN(CC4=C(c5ccc(Cl)cc5)CC(C)(C)CC4)CC3)cc2Oc2cnc3[nH]ccc3c2)cc1[N+](=O)[O-]` [Example 155, 4-(4-{[2-(4-chlorophenyl)-4,4-dimethylcyclohex-1-en-1-yl]methyl}piperazin-1-yl)-N-({4-[(3-methoxy-2,2-dimethylpropyl)amino]-3-nitrophenyl}sulfonyl)-2-(1H-pyrrolo[2,3-b]pyridin-5-yloxy)benzamide]: 0.594 µM.
`CN1CCC(F)(COc2ncc(S(=O)(=O)NC(=O)c3ccc(N4CCN(CC5=C(c6ccc(Cl)cc6)CC(C)(C)CC5)CC4)cc3Oc3cnc4[nH]ccc4c3)cc2Cl)CC1` [Example 269, N-({5-chloro-6-[(4-fluoro-1-methylpiperidin-4-yl)methoxy]pyridin-3-yl}sulfonyl)-4-(4-{[2-(4-chlorophenyl)-4,4-dimethylcyclohex-1-en-1-yl]methyl}piperazin-1-yl)-2-(1H-pyrrolo[2,3-b]pyridin-5-yloxy)benzamide]: the EC50 was 0.00723 µM.

Still in this assay, the particulars now being: Homo sapiens, RS4-11, Table 5, direct comparison Z=N with corresponding analogs Z=C; read-out: RS4; 11 EC50.
Take `CC1(C)CCC(CN2CCN(c3ccc(C(=O)NS(=O)(=O)c4ccc(NCC5CCOCC5)c([N+](=O)[O-])c4)c(Oc4cnc5[nH]ccc5c4)c3)CC2)=C(c2ccc(Cl)cc2)C1` [Example 5, 4-(4-{[2-(4-chlorophenyl)-4,4-dimethylcyclohex-1-en-1-yl]methyl}piperazin-1-yl)-N-({3-nitro-4-[(tetrahydro-2H-pyran-4-ylmethyl)amino]phenyl}sulfonyl)-2-(1H-pyrrolo[2,3-b]pyridin-5-yloxy)benzamide]: the EC50 worked out at 0.012 µM.
